In patent US8007779B2, “Nucleic acid constructs and cells, and methods utilizing same for modifying the electrophysiological function of excitable tissues” (GeneGrafts Ltd., priority 2000, dated 2011):
Where “and” joins values, the source holds several entries; their conditions need not be identical. Equal values may be shown once. Entries after “also recorded” stand apart in the source; their conditions may differ.

What was measured:
[1] = test system: cultured neuronal network; experiment: Spiking activity of cultured cortical neuronal network on multi-electrode array (MEA); format: cell-based, rat; details: 5 μM bicuculin, 10 μM DNQX or 20 μM APV added to the culture
Experimental: Cortical neurons were obtained from newborn rats within 24 hours from birth, following standard harvesting procedures (Culturing nerve cells, 2nd edition, Gary Ranker and Kimberly Goslin, 1998). The cortex tissue was digested enzymatically and mechanically dissociated and the neurons were plated directly onto substrate-integrated multi-electrode array (MEA) dishes prepared as described below. The cultures were bathed in MEM which was supplemented with heat-inactivated horse serum (5%), Glutamine (0.5 mM), Glucose (20 mM), and Gentamycin (10 μg/ml), and maintained in a tissue culture incubator at 37° C., 5% CO2 and 95% during the recording phases. Half of the medium was exchanged twice a week and the experiments were performed during the third week following plating, thus allowing complete maturation of the neurons (FIGS. 1a-b).
Arrays of 60 Ti/Au/TiN electrodes, 30 μm in diameter, spaced 200 μm from each other (MultiChannelSystems (MCS), Reutlingen, Germany) were utilized in the present study. The insulation layer (silicon nitride), was pretreated with poly-L-lysine forming a good surface for network development. A commercial 60-channel amplifier (B-MEA-1060, MCS, Reutlingen, Germany) with frequency limit range of 10-3000 Hz and a gain of ×1024 was utilized for signal amplification. The amplifier was connected to MCPPlus filter amplifiers (Alpha Omega, Nazareth, Israel) for further amplification (×10 to ×20). Stimulation through the MEA was performed using a dedicated 8-channel stimulus generator (MCS, Reutlingen, Germany).
In addition, the micro-incubation environment was arranged to support long-term recordings from MEA dishes. This was achieved by streaming a filtered, heated and humidified air/CO2 (95/5%) gas mixture, and by electrically heating the MEA platform to 37° C. Data is digitized using two 5200a/526 A/D boards (Microstar Laboratories, WA, USA).
Following electrical functionality determination, the neuronal network cultures were incubated with various electrical conduction blockers.

[2] = test system: cardiomyocytes co-cultured with fibroblasts (NIH 3T3) transfected with voltage gated potassium channel Kv1.3; experiment: Spontaneous activity rate of cardiomyocyte cultures and fibroblast co-cultures on MEA under CTX; format: cell-based, rat
Experimental: (§1) Monolayer cultures of neonatal rat ventricular cardiomyocytes (NRVM) were prepared as previously described (Rubin et al, 1995), with some modifications. The cultures were maintained in a humidified incubator under a controlled environment of 5% CO2+95% air at 37° C.; fresh medium was replaced on alternating days.
(§2) Fibroblasts from the NIH 3T3 cell line were transfected with an expression cassette which included a mutant voltage gated potassium channel (Kv1.3) coding sequence (GeneBank Accession number H18261) placed under the transcription control of a constitutive promoter using standard procedures. Fibroblast cultures not transfected with the channel coding sequence were produced from the NIH 3T3 cell-line.
(§3) Once well synchronous spontaneous activity was established in the cardiomyocyte cultures, fibroblasts transfected with the Kv1.3 channel coding sequence or non-transfected fibroblasts were added to the cultures. Two different methods where used to seed the fibroblasts. In the first method, the fibroblast were suspended in trypsin for 5 minutes following which they were seeded in a diffuse pattern in the cardiomyocytic cultures (FIG. 4a). In the second method, the fibroblasts where pipetted up and down through a 5 ml pipette for 2 minutes and seeded in the cardiomyocytic cultures thus were forming clusters of fibroblasts (FIG. 4b).
(§4) Extracellular recordings from cultured cardiomyocytes were performed on a PC-based Microelectrode Data Acquisition System (Multi Channel Systems, Reutlingen, Germany), consisting of Multi-Electrode Array (MEA), pre- and filter-amplifiers, data acquisition board, and software. The MEA consists of a 50×50 mm glass substrate, in the center of which is an embedded 0.7×0.7 or 1.4×1.4 mm matrix of 60 Titanium-nitride, gold contacts 10 or 30 μm diameter electrodes insulated with silicone nitride, with inter-electrode distance of 100 or 200 μm (there are no electrodes in the corners of the matrix). Data were recorded at 10-25 KHz with 12-bit precision. During the recording sessions, the MEA (removed from the regular incubator) was constantly perfused with a gas mixture consisting of 5% CO2+95% air. Temperature was kept at 37±0.10° C.
Electrical activity of the cultures was recorded on day one immediately prior to seeding of the fibroblasts and then daily until the cultures died or no spontaneous activity was detected. During the daily measurements the cultures where subjected to increasing concentrations (0.1, 1, 10, 100 nM) of CTX.
Measurement were performed during spontaneous activity from three groups of cardiomyocyte cultures: cultures without fibroblasts, cultures with NIH 3T3 fibroblasts (seeded diffusely) and cultures with transfected NIH 3T3 fibroblasts (expressing the mutant voltage gated potassium channel coding sequence).

[3] = test system: neonatal rat ventricular cardiomyocytes (NRVM); experiment: Synchronous activity, conduction block, conduction velocity and signal amplitude of cardiomyocyte/fibroblast co-cultures on MEA; format: cell-based
Experimental: as §1, §2, §3, §4
Recorded data was filtered using cutoff frequency of 2 KHz (Fast et al, 1993). The filtered signal was then differentiated digitally to determine the Local Activation Time (LAT) at each electrode, corresponding to dF/dtmin (where F is the filtered signal) (Dolber and Spach, 1986). Color-coded activation maps were constructed by interpolating the LAT values for the sites between the electrodes, and by extrapolating the LAT values for the 4 corners of the MEA matrix. Activation maps were plotted by means of Matlab standard 2-d plotting function (pcolor) (Matlab 5.3 Mathworks Incorporated©). Conduction velocity was calculated by standard methods (Bayly et al, 1988).
Conduction block quantification is central to evaluating conduction block development in the cell cultures, and to evaluating reversibility of the conduction block following CTX application. A conduction block was determined using the following algorithm: […]
Electrical activity of the cultures was recorded on day one immediately prior to seeding of the fibroblasts and then daily until the cultures died or no spontaneous activity was detected. […]

[4] = test system: neonatal rat (Sprague Dawley) ventricular myocytes; experiment: Spontaneous beating rate of neonatal rat ventricular myocyte/fibroblast co-cultures (MEA), with CTx; format: cell-based
Excerpt: Cell co-culturing—Primary monolayer cultures of neonatal rat (Sprague Dawley) ventricular myocytes were generated as previously described [Nuss H B, Marban E, Johns D C. Overexpression of a human potassium channel suppresses cardiac hyperexcitability in rabbit ventricular myocytes. J Clin Invest. 1999; 103:889-96]. Briefly, following excision, the ventricles were minced and treated with RDB (IIBR, Ness-Ziona, Israel). Following centrifugation, dispersed cells were suspended in culture medium (Ham's F10), 5% fetal calf serum, 5% horse serum, 100 U/ml penicillin, […] streptomycin (all from Biological industries, Beit Haemek, Israel), 1 mM CaCl2 and 50 mg/100 ml bromodeoxyuridine (BrdU, Sigma). The cells were then cultured on gelatin coated (0.1%) microelectrode culture plates at a density of 1.5×10^6 cells/ml.
Once a well synchronous spontaneous activity was established in the cardiomyocyte cultures, fibroblasts (naïve, or Kv1.3 expressing fibroblasts) were seeded in a diffuse manner into the cardiomyocytic cultures. Two groups were studied: The cultures were studied daily, and the electrophysiological properties, essentially the spontaneous beating rate of the culture, was assessed at baseline and following application of the specific Kv1.3 blocker, Charybdotoxin (CTx), at increasing dosages (1, 10, 100 nM). […]

[5] = test system: left ventricular myocardium; experiment: In vivo local ventricular effective refractory period (ERP) after cell grafting, rat model; details: for local ventricular ERP at the site of cell transplantation after MTx: study group (Kv1.3 fibroblasts, n=10), mean±SEM (FIG. 19b)
Experimental: Rat model—Male Sprague-Dawley rats weighing 200-250 gr were anesthetized using A Xylasine (0.5 mg/kg) and Ketamine (0.5 mg/kg) preparation [see Example 7]. The animals were then intubated and ventilated using a Harvard small-animal mechanical respirator. The chest wall was opened using a left thoracotomy and the heart was exposed. After removal of the pericardium, a total of 6×10^6 cells (either fibroblasts without transfections in the control group or fibroblast overexpressing the KV1.3 channel in the study group) were transplanted into the anterior aspect of the left ventricular wall using a 28 g needle. In order to prevent graft rejection, all animals were treated with a daily dose of cyclosporin (10 mg/kg) and methyprednisolone (2 mg/kg). The animals underwent a detailed electrophysiological study (see below) immediately before cell grafting and 7 days post-transplantation.
In vivo electrophysiological studies—The electrophysiological study in rats included a standard ventricular pacing protocol to determine the local myocardial effective refractory period (ERP). The ERP was evaluated by applying a train of 20 stimuli at a fixed cycle-length of 200 ms (S1), followed by a single premature stimulus (S2). The S1-S2 coupling interval was gradually shortened. The ERP was determined as the shortest S1-S2 coupling interval still capable of eliciting a ventricular response. Stimuli were generated using a computer controlled STG 1004 stimulus generator with the matching MC-Stim software (both from Multi Channel Systems, Reutlingen, Germany).
The ERP was measured at the site of cell transplantation and at remote sites, both prior to cell transplantation and seven days following cell grafting. In order to dissect the role of the overexpressed channel in altering the local myocardial electrophysiological properties, the ERP was measured also at each site following application of 9 μg/kg of Margatoxin (Alomone Labs, Jerusalem, Israel), a specific Kv 1.3 channel blocker as an intraperitoneal bolus.

[6] = test system: right ventricular free wall; experiment: In vivo local ventricular effective refractory period (ERP) after cell grafting, swine model; design: species or system pig; details: for ventricular ERP following local application of MTx: swine, sites grafted with transfected fibroblasts, all CLs (FIG. 20b)
Experimental: Swine model—Three domestic pigs (20-30) kg were studied. Anesthesia was induced with 5-10 ml of intravenous sodium pentothal 2.5% solution and maintained with inhaled isoflurane (2%) in oxygen. Following a right thoracotomy, each heart was exposed and a total of 6×10^6 cells were transplanted at a total of 7 different locations in the anterior free wall of the right ventricle. Cells were delivered using a 25 g needle using an injection volume of 250 μl. The sites of cell transplantation were marked with a suture. To prevent graft rejection, the animals were treated with an immunosuppressive regimen (cyclosporine, 10 mg/kg/d and methylprednisolone, 3 mg/kg/d). 7 days following cell transplantation, a second thoracotomy and a detailed epicardial electrophysiological study were performed.
The ERP in the pigs was measured in a similar manner to that in the rats but using slower basic stimulation intervals (CLs of 350, 400 and 500 ms). The ERP was measured at the site of cell transplantation as well as in remote sites and also following local intramyocardial injection of Margatoxin at the examined sites.

N[C@H](CCCP(=O)(O)O)C(=O)O [APV, D-2-amino-5-phosphonovalerate]
spiking activity in cultured neuronal network [1]: completely abolished

O=[N+]([O-])c1cc2nc(O)c(O)nc2cc1[N+](=O)[O-] [DNQX]
spiking activity in cultured neuronal network [1]: completely abolished

CN1CCc2cc3c(cc2[C@H]1[C@@H]1OC(=O)c2c1ccc1c2OCO1)OCO3 [bicuculin]
spiking activity in cultured neuronal network [1]: completely abolished

Charybdotoxin (QFTNVSCTTSKECWSVCQRLHNTSRGKCMNKKCRCYS) [CTX]
increase in spontaneous activity rate ([2]; CTX 10 nM, cardiomyocyte cultures or cardiomyocytes co-cultured with untransfected fibroblasts): did not increase | increase in spontaneous activity rate ([2]; CTX 10 nM, co-cultures which included the Kv1.3 transfected fibroblasts): 20% | increase in spontaneous activity rate ([2]; CTX 100 nM, cardiomyocyte cultures or cardiomyocytes co-cultured with untransfected fibroblasts): up to 15% | increase in spontaneous activity rate ([2]; CTX 100 nM, co-cultures which included the Kv1.3 transfected fibroblasts): 55% | activation map after CTX ([3]; co-culture with non-transfected fibroblasts, five days after seeding, CTX 10 nM (FIG. 12d)): no appreciable change | conduction block factor after Charybdotoxin ([3]; co-cultures including fibroblasts transfected with Kv1.3, n=10 (FIG. 11)): substantially decreased | conduction block factor after Charybdotoxin ([3]; co-cultures including non-transfected fibroblasts, n=9 (FIG. 11)): minimal response | conduction block after CTX treatment ([3]; co-cultures with Kv1.3 transfected fibroblasts, CTX 10 nM (FIG. 7d)): reversal; also recorded: reversed | uncoupling effect after CTX treatment ([3]; co-cultures with Kv1.3 transfected fibroblasts, CTX 100 nM (FIGS. 6f-g)): reversed | beating frequency after CTx application ([4]; control group (naive fibroblasts)): did not significantly alter | reversibility of the negative chronotropic effect by CTx ([4]; study group (Kv1.3 transfected fibroblasts), CTx 100 nM (FIG. 18b)): full reversibility

Margatoxin (TIINVKCTSPKQCLPPCKAQFGQSAGAKCMNGKCKCYPH)
local ERP after administration of Mtx ([5]; control group grafted with naive fibroblasts (n=8)): did not change significantly | ventricular ERP at the site of cell grafting after Margatoxin ([5]; one animal grafted with Kv1.3 fibroblasts, basic CL 200 ms (FIG. 19a)): reversed and 100 ms | local ventricular ERP at the site of cell transplantation after MTx [5]: 117 ± 7.70 ms | local ventricular ERP at the site of cell transplantation after MTx ([5]; listed as MTx): 117 ± 8 ms | local ERP after local application of MTx ([6]; pig grafted with transfected cells, basic CL drive 400 ms (FIG. 20a)): 220 ms | ventricular ERP following local application of MTx [6]: near baseline values | ventricular ERP following local application of MTx ([6]; listed as MTx): not different from the control sites
